Measurements: patent publication US11641858B2, “Agricultural chemicals” (Redag Crop Protection Ltd, priority 2016, dated 2023)

How the values were obtained:
Phytophthora cinnamomi = assay: Amended agar assay (potato dextrose agar), reduction in colony growth; assay type: cell-based; details: for EC50: descending test concentrations, 5-fold dilutions typically down to 0.032 ppm, read-out: Phytophthora cinnamomi (EC50)
Experimental: (§1) Testing was carried out on potato dextrose agar (PDA) amended with each compound at test concentrations of 20, 4 and 0.8, 0.16 and 0.032 ppm. Amended agar at each test concentration was poured into three replicate 9 cm petri dishes. Each replicate dish was inoculated in the centre with a 5 mm agar plug taken from the leading edge of a culture aged between 2 and 7 days old; the age of the culture was dependant on the growth rate of the pathogen being tested. The test pathogens were Pythium ultimum and Phytophthora cinnamomi. Plates were incubated at 18° C. and the diameter of each colony measured before growth on the fastest growing plate reached the plate edge. This varied between 2 and 7 days depending on the growth rate of test pathogens. The % reduction in colony growth compared to the control was calculated for each test concentration and pathogen combination.
(§2) The results are shown in Table 1 in which * represents an average control of up to 50% at said dosage; ** represents an average control of 50% or greater but less than 80% at said dosage; and *** represents an average control of 80% or greater at said dosage.
(§3) A primary screen was also conducted for a number of other compounds of the invention. The screen was conducted at 20 ppm and the results are provided in Table 2, in which D represents no control detected at this concentration; C represents up to 50% control; B from 50 to 99% control; and A represents a control of greater than 99%.
(§4) Alternatively, or in addition, the same assay was conducted at descending test concentrations with 5-fold dilutions typically down to 0.032 ppm, and an EC50 (the concentration at which 50% control would be achieved) was determined. The results are provided in Table 1 in which G represents an EC50 above 20 ppm, F represents an EC50 of 2-20 ppm and E represents and EC50 less than 2 ppm.

Pythium ultimum = assay: as above; assay type: cell-based; details: Globisporangium ultimum; for EC50: descending test concentrations, 5-fold dilutions typically down to 0.032 ppm, read-out: Pythium ultimum (EC50); for inhibition of growth at 20 ppm: Pythium ultimum, primary screen at 20 ppm, read-out: % control at 20 ppm
Experimental: as §1, §2, §3, §4

In the case of `COCCOC(=O)Nc1cccc(COc2nc3ccccc3n2-c2nnnn2C)n1` [Example 20], the EC50 (Phytophthora cinnamomi) is reported as < 2 µg/mL and the EC50 (Pythium ultimum) is reported as < 2 µg/mL.
For `CCCOC(=O)Nc1cccc(COc2nc3ccccc3n2-c2nnnn2C)n1` [Example 21], the EC50 (Phytophthora cinnamomi) was < 2 µg/mL and the EC50 (Pythium ultimum) was < 2 µg/mL.
With `Cn1nnnc1-n1c(OCc2cccc(NC(=O)CC3CCCC3)n2)nc2ccccc21` [Example 22, 2-Cyclopentyl-N-(6-(((1-(1-methyl-1H-tetrazol-5-yl)-1H-benzo[d]imidazol-2-yl)oxy)methyl)pyridin-2-yl)acetamide] the EC50 (Phytophthora cinnamomi) was < 2 µg/mL and the EC50 (Pythium ultimum) was < 2 µg/mL.
With `Cn1nnnc1-n1c(OCc2cccc(NC(=O)C3CCCC3)n2)nc2ccccc21` [Example 23] the EC50 (Phytophthora cinnamomi) was < 2 µg/mL and the EC50 (Pythium ultimum) was < 2 µg/mL.
With `Cn1nnnc1-n1c(OCc2cccc(NC(=O)COCc3ccccc3)n2)nc2ccccc21` [Example 24] the EC50 (Phytophthora cinnamomi) was < 2 µg/mL and the EC50 (Pythium ultimum) was < 2 µg/mL.
`Cn1nnnc1-n1c(OCc2cccc(NC(=O)COc3ccccc3)n2)nc2ccccc21` [Example 25] was tested, and the EC50 (Phytophthora cinnamomi) was < 2 µg/mL and the EC50 (Pythium ultimum) was < 2 µg/mL.
`Cn1nnnc1-n1c(OCc2cccc(NC(=O)CCC3CCCC3)n2)nc2ccccc21` [Example 26] was tested, and the EC50 (Phytophthora cinnamomi) was < 2 µg/mL and the EC50 (Pythium ultimum) was < 2 µg/mL.
`Cn1nnnc1-n1c(OCc2cccc(NC(=O)c3ccccc3)n2)nc2ccccc21` [Example 27] was tested, and the EC50 (Phytophthora cinnamomi) was < 2 µg/mL and the EC50 (Pythium ultimum) was < 2 µg/mL.
With `CCC(=O)Nc1cccc(COc2nc3ccccc3n2-c2nnnn2C)n1` [Example 28] the EC50 (Phytophthora cinnamomi) was < 2 µg/mL and the EC50 (Pythium ultimum) was < 2 µg/mL.
`Cn1nnnc1-n1c(OCc2cccc(NC(=O)Cc3ccccc3)n2)nc2ccccc21` [Example 29] was tested, and the EC50 (Phytophthora cinnamomi) was < 2 µg/mL and the EC50 (Pythium ultimum) was < 2 µg/mL.
With `CCCC(=O)Nc1cccc(COc2nc3ccccc3n2-c2nnnn2C)n1` [Example 30] the EC50 (Phytophthora cinnamomi) was < 2 µg/mL and the EC50 (Pythium ultimum) was < 2 µg/mL.
For `CCCCC(=O)Nc1cccc(COc2nc3ccccc3n2-c2nnnn2C)n1` [Example 31], the EC50 (Phytophthora cinnamomi) was < 2 µg/mL and the EC50 (Pythium ultimum) was < 2 µg/mL.
For `Cn1nnnc1-n1c(OCc2cccc(NC(=O)C3CC3)n2)nc2ccccc21` [Example 32], the EC50 (Phytophthora cinnamomi) was < 2 µg/mL and the EC50 (Pythium ultimum) was < 2 µg/mL.
`COCC(=O)Nc1cccc(COc2nc3ccccc3n2-c2nnnn2C)n1` [Example 33] gave an EC50 (Phytophthora cinnamomi) of 2 to 20 µg/mL and an EC50 (Pythium ultimum) of 2 to 20 µg/mL.
In the case of `COc1ccc(C(=O)Nc2cccc(COc3nc4ccccc4n3-c3nnnn3C)n2)cc1` [Example 34], the EC50 (Phytophthora cinnamomi) is reported as < 2 µg/mL and the EC50 (Pythium ultimum) is reported as < 2 µg/mL.
`Cn1nnnc1-n1c(OCc2cccc(NC(=O)C3CCCCC3)n2)nc2ccccc21` [Example 35] was tested, and the EC50 (Phytophthora cinnamomi) was < 2 µg/mL and the EC50 (Pythium ultimum) was < 2 µg/mL.
For `CCC(CC)C(=O)Nc1cccc(COc2nc3ccccc3n2-c2nnnn2C)n1` [Example 36], the EC50 (Phytophthora cinnamomi) was < 2 µg/mL and the EC50 (Pythium ultimum) was < 2 µg/mL.
With `Cn1nnnc1-n1c(OCc2cccc(NC(=O)c3ccccn3)n2)nc2ccccc21` [Example 37, N-(6-(((1-(1-methyl-1H-tetrazol-5-yl)-1H-benzo[d]imidazol-2-yl)oxy)methyl)pyridin-2-yl)picolinamide] the EC50 (Phytophthora cinnamomi) was < 2 µg/mL and the EC50 (Pythium ultimum) was < 2 µg/mL.
With `Cn1nnnc1-n1c(OCc2cccc(NC(=O)Cc3ccccn3)n2)nc2ccccc21` [Example 38] the EC50 (Phytophthora cinnamomi) was < 2 µg/mL and the EC50 (Pythium ultimum) was < 2 µg/mL.
With `CSCC(=O)Nc1cccc(COc2nc3ccccc3n2-c2nnnn2C)n1` [Example 39, N-(6-(((1-(1-methyl-1H-tetrazol-5-yl)-1H-benzo[d]imidazol-2-yl)oxy)methyl)pyridin-2-yl)-2-(methylthio)acetamide] the EC50 (Phytophthora cinnamomi) was < 2 µg/mL and the EC50 (Pythium ultimum) was < 2 µg/mL.
In the case of `Cn1nnnc1-n1c(OCc2cccc(NC(=O)CC3CC3)n2)nc2ccccc21` [Example 40], the EC50 (Phytophthora cinnamomi) is reported as < 2 µg/mL and the EC50 (Pythium ultimum) is reported as < 2 µg/mL.
For `CSCCC(=O)Nc1cccc(COc2nc3ccccc3n2-c2nnnn2C)n1` [Example 41], the EC50 (Phytophthora cinnamomi) was < 2 µg/mL and the EC50 (Pythium ultimum) was < 2 µg/mL.
`COCCC(=O)Nc1cccc(COc2nc3ccccc3n2-c2nnnn2C)n1` [Example 42] was tested, and the EC50 (Phytophthora cinnamomi) was < 2 µg/mL and the EC50 (Pythium ultimum) was < 2 µg/mL.
In the case of `Cn1nnnc1-n1c(OCc2cccc(NC(=O)c3ccc(C#N)cc3)n2)nc2ccccc21` [Example 43], the EC50 (Phytophthora cinnamomi) is reported as < 2 µg/mL and the EC50 (Pythium ultimum) is reported as < 2 µg/mL.
`Cn1nnnc1-n1c(OCc2cccc(NC(=O)CC(C)(C)C)n2)nc2ccccc21` [Example 44] was tested, and the EC50 (Phytophthora cinnamomi) was < 2 µg/mL and the EC50 (Pythium ultimum) was < 2 µg/mL.
`Cn1nnnc1-n1c(OCc2cccc(NC(=O)CCC(C)(C)C)n2)nc2ccccc21` [Example 45] was tested, and the EC50 (Phytophthora cinnamomi) was < 2 µg/mL and the EC50 (Pythium ultimum) was < 2 µg/mL.
With `Cn1nnnc1-n1c(OCc2cccc(NC(=O)CC3CCCCC3)n2)nc2ccccc21` [Example 46] the EC50 (Phytophthora cinnamomi) was < 2 µg/mL and the EC50 (Pythium ultimum) was < 2 µg/mL.
With `Cn1nnnc1-n1c(OCc2cccc(NC(=O)CCC3CCCCC3)n2)nc2ccccc21` [Example 47] the EC50 (Phytophthora cinnamomi) was < 2 µg/mL and the EC50 (Pythium ultimum) was < 2 µg/mL.
With `C#CCC(=O)Nc1cccc(COc2nc3ccccc3n2-c2nnnn2C)n1` [Example 48] the EC50 (Phytophthora cinnamomi) was > 20 µg/mL and the EC50 (Pythium ultimum) was > 20 µg/mL.
In the case of `CC(C)CCC(=O)Nc1cccc(COc2nc3ccccc3n2-c2nnnn2C)n1` [Example 49], the EC50 (Phytophthora cinnamomi) is reported as < 2 µg/mL and the EC50 (Pythium ultimum) is reported as < 2 µg/mL.
In the case of `C=CCC(=O)Nc1cccc(COc2nc3ccccc3n2-c2nnnn2C)n1` [Example 50], the EC50 (Phytophthora cinnamomi) is reported as < 2 µg/mL and the EC50 (Pythium ultimum) is reported as < 2 µg/mL.
With `CCC(C)C(=O)Nc1cccc(COc2nc3ccccc3n2-c2nnnn2C)n1` (stereo not shown) [Example 51] the EC50 (Phytophthora cinnamomi) was < 2 µg/mL and the EC50 (Pythium ultimum) was < 2 µg/mL.
In the case of `Cn1nnnc1-n1c(OCc2cccc(NC(=O)C[S+](C)[O-])n2)nc2ccccc21` (stereo not shown) [Example 52, N-(6-(((1-(1-Methyl-1H-tetrazol-5-yl)-1H-benzo[d]imidazol-2-yl)oxy)methyl)pyridin-2-yl)-2-(methylsulfinyl)acetamide], the EC50 (Phytophthora cinnamomi) is reported as 2 to 20 µg/mL and the EC50 (Pythium ultimum) is reported as > 20 µg/mL.
For `Cn1nnnc1-n1c(OCc2cccc(NC(=O)CS(C)(=O)=O)n2)nc2ccccc21` [Example 53, N-(6-(((1-(1-methyl-1H-tetrazol-5-yl)-1H-benzo[d]imidazol-2-yl)oxy)methyl)pyridin-2-yl)-2-(methylsulfonyl)acetamide], the EC50 (Phytophthora cinnamomi) was < 2 µg/mL and the EC50 (Pythium ultimum) was 2 to 20 µg/mL.
`Cn1ccnc1-n1c(OCc2cccc(NC(=O)C(F)(F)Oc3ccccc3)n2)nc2ccccc21` [Example 54] was tested, and the EC50 (Phytophthora cinnamomi) was < 2 µg/mL and the EC50 (Pythium ultimum) was < 2 µg/mL.
`Cn1nnnc1-n1c(OCc2cccc(NC(=O)C(F)(F)Oc3ccccc3)n2)nc2c(F)cc(F)cc21` [Example 55] was tested, and the EC50 (Phytophthora cinnamomi) was < 2 µg/mL and the EC50 (Pythium ultimum) was < 2 µg/mL.
For `Cc1nccnc1-n1c(OCc2cccc(NC(=O)C(F)(F)Oc3ccccc3)n2)nc2ccccc21` [Example 56], the EC50 (Phytophthora cinnamomi) was 2 to 20 µg/mL and the EC50 (Pythium ultimum) was < 2 µg/mL.
`Cn1ccnc1-n1c(OCc2cccc(NC(=O)OC(C)(C)C)n2)nc2ccccc21` [Example 57] was tested, and the EC50 (Phytophthora cinnamomi) was < 2 µg/mL and the EC50 (Pythium ultimum) was < 2 µg/mL.
In the case of `Cn1nnnc1-n1c(OCc2cccc(NC(=O)OC(C)(C)C)n2)nc2c(F)cc(F)cc21` [Example 58], the EC50 (Phytophthora cinnamomi) is reported as < 2 µg/mL and the EC50 (Pythium ultimum) is reported as < 2 µg/mL.
For `Cc1nccnc1-n1c(OCc2cccc(NC(=O)OC(C)(C)C)n2)nc2ccccc21` [Example 59], the EC50 (Phytophthora cinnamomi) was > 20 µg/mL and the EC50 (Pythium ultimum) was > 20 µg/mL.
With `Cn1nnnc1-n1c(OCc2cccc(NC(=O)C(F)(F)Oc3ccccc3)n2)nc2ccc(C#N)cc21` [Example 60] the EC50 (Phytophthora cinnamomi) was < 2 µg/mL and the EC50 (Pythium ultimum) was < 2 µg/mL.
With `Cn1nnnc1-n1c(OCc2cccc(NC(=O)C(F)(F)Oc3ccccc3)n2)nc2cc(C#N)ccc21` [Example 61] the EC50 (Phytophthora cinnamomi) was < 2 µg/mL and the EC50 (Pythium ultimum) was < 2 µg/mL.
`O=C(Nc1cccc(COc2nc3ccccc3n2-c2ncccc2Br)n1)C(F)(F)Oc1ccccc1` [Example 62] was tested, and the inhibition of growth at 20 ppm (Phytophthora cinnamomi; primary screen at 20 ppm, read-out: % control at 20 ppm) was < 50% and the inhibition of growth at 20 ppm (Pythium ultimum) was < 50%.
For `O=C(Nc1cccc(COc2nc3ccccc3n2-c2ncccc2Cl)n1)C(F)(F)Oc1ccccc1` [Example 63], the EC50 (Phytophthora cinnamomi) was 2 to 20 µg/mL and the EC50 (Pythium ultimum) was 2 to 20 µg/mL.
With `O=C(Nc1cccc(COc2nc3ccccc3n2-c2ncncc2Cl)n1)C(F)(F)Oc1ccccc1` [Example 64] the EC50 (Phytophthora cinnamomi) was < 2 µg/mL and the inhibition of growth at 20 ppm (Pythium ultimum) was > 99%.
For `Cc1cccnc1-n1c(OCc2cccc(NC(=O)C(F)(F)Oc3ccccc3)n2)nc2ncccc21` [Example 66], the EC50 (Phytophthora cinnamomi) was > 20 µg/mL and the inhibition of growth at 20 ppm (Pythium ultimum) was 50 to 99%.
In the case of `O=C(Nc1cccc(COc2[nH]c3ccccc3c2-c2ncncc2Cl)n1)C(F)(F)Oc1ccccc1` [Example 69, N-(6-(((3-(5-Chloropyrimidin-4-yl)-1H-indol-2-yl)oxy)methyl)pyridin-2-yl)-2,2-difluoro-2-phenoxyacetamide], the EC50 (Phytophthora cinnamomi) is reported as > 20 µg/mL and the EC50 (Pythium ultimum) is reported as > 20 µg/mL.
